According to patent US20050250713A1, “11,12-Cyclic thiocarbamate macrolide antibacterial agents” (priority 2004, published 2005):
≈ marks a conversion by molar mass, not a printed value.

Assays:
Assay in all cases: MIC, microdilution broth method (NCCLS)
Assay type in all cases: cell-based
S. aureus ATCC29213 = details: Staphylococcus aureus, cation adjusted Mueller-Hinton broth, 16-20 hours
Experimental: (§1) Minimum inhibitory concentration (MIC) has been an indicator of in vitro antibacterial activity widely used in the art. The in vitro antimicrobial activity of the compounds was determined by the microdilution broth method following the test method from the National Committee for Clinical Laboratory Standards (NCCLS). This method is described in the NCCLS Document M7-A4, Vol. 17, No.2, “Methods for Dilution Antimicrobial Susceptibility Test for Bacteria that Grow Aerobically—Fourth Edition”, which is incorporated herein by reference. In this method two-fold serial dilutions of drug in cation adjusted Mueller-Hinton broth are added to wells in microdilution trays. The test organisms are prepared by adjusting the turbidity of actively growing broth cultures so that the final concentration of test organism after it is added to the wells is approximately 5×10^4 CFU/well. Following inoculation of the microdilution trays, the trays are incubated at 35 °C for 16-20 hours and then read. […] The amount of growth in the wells containing the test compound is compared with the amount of growth in the growth-control wells (no test compound) used in each tray. As set forth in Table 1, compounds of the present invention were tested against a variety of Gram positive and Gram negative pathogenic bacteria resulting in a range of activities depending on the organism tested.

H. influenzae ATCC49247 = details: Haemophilus influenzae, cation adjusted Mueller-Hinton broth, 16-20 hours, read-out: MIC Values, D: H. influenzae ATCC49247
Experimental: as §1

E. faecalis ATCC29212 = details: Enterococcus faecalis, cation adjusted Mueller-Hinton broth, 16-20 hours, read-out: MIC Values, B: E. faecalis ATCC29212
Experimental: as §1

S. pneumoniae ATCC49619 = details: Streptococcus pneumoniae, cation adjusted Mueller-Hinton broth, 16-20 hours, read-out: MIC Values, C: S. pneumoniae ATCC49619
Experimental: as §1

Row | SMILES | MIC (S. aureus ATCC29213) [µg/mL] | MIC (H. influenzae ATCC49247) [µg/mL] | MIC (E. faecalis ATCC29212) [µg/mL] | MIC (S. pneumoniae ATCC49619) [µg/mL]
1 | CC[C@H]1OC(=O)[C@H](C)C(=O)[C@H](C)[C@@H](O[C@@H]2O[C@H](C)C[C@H](N(C)C)[C@H]2O)[C@](C)(OC(=O)NC/C=C/c2ccc(-c3cccnn3)cc2)C[C@@H](C)C(=O)[C@H](C)[C@H]2NC(=S)O[C@@]21C [Compound 4] | 0.5 (≈ 0.587 µM) | 2 (≈ 2.35 µM) | 0.25 (≈ 0.293 µM) | 0.12 (≈ 0.141 µM)
2 | CC[C@H]1OC(=O)[C@H](C)C(=O)[C@H](C)[C@@H](O[C@@H]2O[C@H](C)C[C@H](N(C)C)[C@H]2O)[C@](C)(OC(=O)NC/C=C/c2cnc3ccccc3c2)C[C@@H](C)C(=O)[C@H](C)[C@H]2NC(=S)O[C@@]21C [Compound 5] | 0.25 (≈ 0.303 µM) | 1 (≈ 1.21 µM) | 0.06 (≈ 0.0727 µM) | ≤ 0.015
3 | CC[C@H]1OC(=O)[C@H](C)C(=O)[C@H](C)[C@@H](O[C@@H]2O[C@H](C)C[C@H](N(C)C)[C@H]2O)[C@](C)(OC(=O)NC/C=C/c2ccc(Br)nc2)C[C@@H](C)C(=O)[C@H](C)[C@H]2NC(=S)O[C@@]21C [Compound 6] | 0.5 (≈ 0.586 µM) | 1 (≈ 1.17 µM) | 0.06 (≈ 0.0703 µM) | ≤ 0.015
4 | CC[C@H]1OC(=O)[C@H](C)C(=O)[C@H](C)[C@@H](O[C@@H]2O[C@H](C)C[C@H](N(C)C)[C@H]2O)[C@](C)(OC(=O)NC/C=C/c2cnc(C3CC3)nc2)C[C@@H](C)C(=O)[C@H](C)[C@H]2NC(=S)O[C@@]21C [Compound 7] | 0.5 (≈ 0.613 µM) | 1 (≈ 1.23 µM) | 0.06 (≈ 0.0735 µM) | ≤ 0.015
5 | CC[C@H]1OC(=O)[C@H](C)C(=O)[C@H](C)[C@@H](O[C@@H]2O[C@H](C)C[C@H](N(C)C)[C@H]2O)[C@](C)(OC(=O)OC/C=C/c2cnc3ccccc3c2)C[C@@H](C)C(=O)[C@H](C)[C@H]2NC(=S)O[C@@]21C [Compound 9] | 0.12 (≈ 0.145 µM) | 2 (≈ 2.42 µM) | 0.06 (≈ 0.0726 µM) | –
6 | CC[C@H]1OC(=O)[C@H](C)C(=O)[C@H](C)[C@@H](O[C@@H]2O[C@H](C)C[C@H](N(C)C)[C@H]2O)[C@](C)(OC(=O)OC/C=C/c2ccc(Br)nc2)C[C@@H](C)C(=O)[C@H](C)[C@H]2NC(=S)O[C@@]21C [Compound 10] | 0.25 (≈ 0.292 µM) | 2 (≈ 2.34 µM) | 0.12 (≈ 0.14 µM) | ≤ 0.015
7 | CC[C@H]1OC(=O)[C@H](C)C(=O)[C@H](C)[C@@H](O[C@@H]2O[C@H](C)C[C@H](N(C)C)[C@H]2O)[C@](C)(OC(=O)NC/C(F)=C/c2cnc3ccccc3c2)C[C@@H](C)C(=O)[C@H](C)[C@H]2NC(=S)O[C@@]21C [Compound 12] | 0.5 (≈ 0.593 µM) | 1 (≈ 1.19 µM) | 0.12 (≈ 0.142 µM) | 0.03 (≈ 0.0356 µM)
